The test system of data set [1] is U87MG cells derived from a human glioblastoma. Nature of the data set: In vivo tumor growth inhibition, U87MG glioblastoma xenograft. More on the design: species or system nude mice. The settings on record: continuous infusion of 27 mg/kg/day for 4 days, measured at the end of the assay. The method, then:
(§1) In Vivo Tumor Growth Inhibition Studies
(§2) Exponentially growing U87MG cells derived from a human glioblastoma or H1155 cells derived from human non-small cell lung cancer are implanted subcutaneously in the rear flank of nude mice. Three days after tumor cell implants, microsurgery is performed to cannulate catheter for continuous infusion via jugular vein. Example 1, formulated in D5W (5% dextrose in water) at various concentrations, is then infused into mice next day at 40 μL/hr for 4 days. Tumors are measured twice weekly until the study is terminated, usually at 24 days after the initial implants. Tumor growth inhibition is calculated by dividing the average tumor volume of the treated group by that of the vehicle-treated group.

Data set [2] deals with Phospho-GSK3b (pGSK3b), a target of Akt in cells. Nature of the data set: Cell-based ELISA (cELISA) for detection of phospho-GSK3b in U87MG cells. As to conditions: Homo sapiens, U-87 MG, 2 hr treatment, n=8, read-out: IC50, inhibition of pGSK3b. The method, then:
Cell-Based ELISA (cELISA) for the Detection of Phospho-GSK3b (pGSK3b)
Exponentially grown U87MG cells derived from a human glioblastoma are seeded into 96-well plates and incubated overnight at 37° C. with 5% CO2. Ten concentrations of the compound of Example 1 are prepared from a 4 mM stock (in 100% DMSO) by 1:2 serial dilutions into the culture media. Equal volume of each of the serial dilutions is added directly to the cells. Treatment is stopped 2 hr later. At the end of the treatment, the culture media is removed, and the cells are washed once with ice-cold phosphate-buffered saline (PBS). The cells are fixed in PREFER according to vendor's procedure, followed by rinses in PBS/0.1% SDS and PBS/0.1% Triton X-100®, then overnight incubation in SEA Block Blocking buffer. The blocking step is followed by an overnight incubation of the cells with a rabbit antibody against pGSK3b/Ser9, followed by a goat anti-rabbit IgG. The pGSK3b is detected by SuperSignal ELISA Femto following the vendor's procedure.

For data set [3], the target named is T1, Active human recombinant Akt1 (full-length) (Homo sapiens, UniProt P31749).
T1 construct: Active human recombinant Akt1 (full-length) purified from Sf9 insect cells; purchased Upstate Biotechnology, Inc; host or cells: Sf9 insect cells
T1 sequence (P31749 whole entry): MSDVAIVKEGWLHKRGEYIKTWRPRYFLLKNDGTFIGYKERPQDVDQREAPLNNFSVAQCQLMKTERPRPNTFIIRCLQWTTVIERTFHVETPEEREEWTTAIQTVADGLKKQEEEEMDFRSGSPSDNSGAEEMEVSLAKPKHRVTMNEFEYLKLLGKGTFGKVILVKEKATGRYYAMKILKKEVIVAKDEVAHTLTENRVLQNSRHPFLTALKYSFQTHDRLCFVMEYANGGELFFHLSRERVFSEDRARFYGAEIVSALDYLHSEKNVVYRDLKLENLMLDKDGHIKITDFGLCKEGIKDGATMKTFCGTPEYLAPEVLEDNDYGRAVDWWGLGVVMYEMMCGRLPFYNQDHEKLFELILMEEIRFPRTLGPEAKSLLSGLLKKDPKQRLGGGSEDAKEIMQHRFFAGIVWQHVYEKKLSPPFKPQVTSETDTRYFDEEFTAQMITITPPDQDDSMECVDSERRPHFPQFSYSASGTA
Kind of data set: Akt1 Phosphorylation Assay (competitive fluorescence polarization immunoassay, FPIA). The class given is biochemical. As to conditions: 20 μM ATP, 60 min at room temperature, n=3; read-out: IC50, inhibition of Akt1 phosphorylation. The text has this: Akt1 Phosphorylation Assay
The assay measures the phosphorylation of PKC alpha pseudo-substrate peptide by a Competitive Fluorescence Polarization Immunoassay (FPIA). The assay indirectly measures the concentration of phospho-peptide product formed in a reaction by measuring the change in the intensity of polarized light emitted from a fluorescently-labeled tracer peptide when displaced from a phospho-specific antibody by the phospho-peptide product. Calibration with a standard curve yields quantitative results.
Active human recombinant Akt1 (full-length) purified from Sf9 insect cells is obtained from Upstate Biotechnology, Inc. Peptide Substrate (M.W.1561) is purchased. […]
After 60 min at room temperature the reaction is terminated by adding 25 μL of Quench/Detection Mix containing 260 mM EDTA, 3.4 nM Fluorescein Tracer, and 7.5 nM Anti-Phosphoserine Antibody. The plates are incubated in darkness at room temperature for more than 3 hr, and then fluorescence polarization (at λex=485 nm, […]) is read using a Tecan Ultra plate reader. The concentration of phosphorylated product per well is calculated from millipolarization (mP) units using a prepared peptide competitor dilution series as a standard curve.

The subject of the next data set is Phospho-GSK3b (pGSK3b). Nature of the data set: In vivo target inhibition by a single IV injection, U87MG tumors in nude mice. As to conditions: Mus musculus, U-87 MG, U87MG glioblastoma tumors, single IV injection of 25 mg/kg, at 1 hour, read-out: inhibition of pGSK3b in tumor. The method, then:
In Vivo Target Inhibition Studies
In Vivo Target Inhibition by a Single IV Injection:
Exponentially growing U87MG cells derived from a human glioblastoma are implanted subcutaneously in the rear flank of nude mice. When the tumors reach the size of 200-250 mm^3, compounds are administered to the animals by a single IV injection in a dose-response study or in a time-course study. At the end of each treatment, animals are asphyxiated with CO2. Tumors are harvested by surgical excision, quickly frozen in liquid nitrogen and stored at −80° C. until analysis. Sera are prepared from blood harvested from the heart by cardiac puncture and stored at −80° C. until analysis.
The Akt inhibitor is extracted from serum with acetonitrite/methanol and analyzed alongside an internal standard by LC/MS/MS. Tumors are homogenized in 2 volumes of a lysis buffer containing 25 mM Tris (pH 7.5), Roche complete protease inhibitors, and 1 mM vanadate with Powergen 125 homogenizer, then sequentially passed thorough an 18 gauge needle and a 23 gauge needle. Soluble cytoplasmic extracts are collected from the supernatant fraction after the lysates are centrifuged for 30 minutes at 20,000×g. Protein concentrations in the cytoplasmic extracts are determined with a BCA kit. Phospho-GSK3b (pGSK3b) in the soluble extracts is analyzed with the ELISA Kit.

In data set [4] the test system is H1155 cells derived from human non-small cell lung cancer. Kind of data set: In vivo tumor growth inhibition, H1155 non-small cell lung cancer xenograft. Also on record: species or system nude mice. As to conditions: continuous infusion of 24 mg/kg/day for 4 days, measured at the end of the assay. The method, then: as §1, §2
Data set [5] in a line: Effect of initial solution pH on rate of precipitation. The class given is physicochemical. As to conditions: room temperature. The text has this: A pharmaceutical composition of 4-[5-(2-amino-ethanesulfonyl)-isoquinolin-7-yl]-phenol monohydrochloride hemihydrate comprises a non-reducing sugar and a pH adjusting agent. […] […]. Also, the rate at which precipitation takes place is pH dependent.

Structures are written as SMILES. Where a name gives a salt, the structure may show the parent alone.

As for `NCCS(=O)(=O)c1cc(-c2ccc(O)cc2)cc2cnccc12` [Example 1, 4-[5-(2-Amino-ethanesulfonyl)-isoquinolin-7-yl]-phenol di-hydrochloride Salt], the tumor growth inhibition in data set [1] was 50%; in data set [4], 63%. Also, the IC50 turned out to be 2040 nM in data set [2] and 45 nM in data set [3]. The inhibition at 25 mg/kg in the data set with Phospho-GSK3b (pGSK3b) stood at 76%.

As for `Cl.Cl.NCCS(=O)(=O)c1cc(-c2ccc(O)cc2)cc2cnccc12.NCCS(=O)(=O)c1cc(-c2ccc(O)cc2)cc2cnccc12.O` [4-[5-(2-Amino-ethanesulfonyl)-isoquinolin-7-yl]-phenol Monohydrochloride Hemihydrate], the “Precipitation (ppt)” value in data set [5] (0.001 N HCl/3% mannitol, initial pH 4.20, approx. 15 mg/mL) was “ppt after 24 hr”; in data set [5] (0.0025 N HCl/3% mannitol, initial pH 3.91, approx. 15 mg/mL) it was “ppt after 36 hr”; in data set [5] (0.005 N HCl/3% mannitol, initial pH 3.58, approx. 15 mg/mL) it was “ppt after 48 hr”; in data set [5] (0.01 N HCl/3% mannitol, initial pH 3.19, approx. 15 mg/mL) it was “no ppt up to 96 hours”; in data set [5] (0.05 N HCl/3% mannitol, initial pH 1.68, approx. 15 mg/mL) it was “no ppt up to 96 hours”.
